Reference: PubChem BioAssay AID190 (DTP/NCI, 2004)
Where “and” joins values, the source holds several entries; their conditions need not be identical. Equal values may be shown once. Inconclusive results and toxic doses are left out. How the source made its calls: active means survival T/C of 150% or more; inactive means T/C below 125% in these data.

System: AKR/Lw mice, AKR lymphoma ip, median survival T/C
Experiment: NCI In Vivo Anticancer Drug Screen. Data for tumor model Lymphoma AKR (Transplanted) (intraperitoneal) in AKR/Lw mice
Details: endpoint: median survival time, higher = longer survival
Method: The antitumor activity of compounds was measured in mice bearing transplantable tumors. Survival or tumor size were measured and the results are expressed as the measurement made in the treated group (T) divided by the measurement made in the vehicle treated control group (C). The tumor model used in this assay is Lymphoma AKR (Transplanted) (intraperitoneal) in AKR/Lw mice

[1] = dose: 25.0 mg/kg/injection, schedule: Q01DX001 (ip), vehicle: Klucel (hydroxypropylcellulose) (HPC)
[2] = dose: 50.0 mg/kg/injection, schedule: Q01DX001 (ip), vehicle: Klucel (hydroxypropylcellulose) (HPC)
[3] = dose: 100.0 mg/kg/injection, schedule: Q01DX001 (ip), vehicle: Klucel (hydroxypropylcellulose) (HPC)
[4] = dose: 200.0 mg/kg/injection, schedule: Q01DX001 (ip), vehicle: Klucel (hydroxypropylcellulose) (HPC)
[5] = dose: 400.0 mg/kg/injection, schedule: Q01DX001 (ip), vehicle: Klucel (hydroxypropylcellulose) (HPC)
[6] = dose: 100.0 mg/kg/injection, schedule: Q01DX001 (ip), vehicle: saline
[7] = dose: 200.0 mg/kg/injection, schedule: Q01DX001 (ip), vehicle: saline
[8] = dose: 400.0 mg/kg/injection, schedule: Q01DX001 (ip), vehicle: saline

Measured: T/C

NC(=S)N/N=C/c1ccccn1
inactive: dose: 0.12 mg/kg/injection, schedule: Q03HX032 (ip), vehicle: saline with Tween-80 122 % of control | dose: 0.25 mg/kg/injection, schedule: Q03HX032 (ip), vehicle: saline with Tween-80 113 % of control | dose: 0.5 mg/kg/injection, schedule: Q03HX032 (ip), vehicle: saline with Tween-80 122 % of control | dose: 1.0 mg/kg/injection, schedule: Q03HX032 (ip), vehicle: saline with Tween-80 114 % of control | dose: 1.25 mg/kg/injection, schedule: Q01DX009 (ip), vehicle: saline with Tween-80 96 % of control | dose: 2.0 mg/kg/injection, schedule: Q04DX003 (ip), vehicle: saline with Tween-80 103 % of control | dose: 3.5 mg/kg/injection, schedule: Q04DX003 (ip), vehicle: saline with Tween-80 96 % of control | dose: 4.0 mg/kg/injection, schedule: Q04DX003 (ip), vehicle: saline with Tween-80 116 % of control | dose: 5.0 mg/kg/injection, schedule: Q01DX009 (ip), vehicle: saline with Tween-80 94 % of control | dose: 5.3 mg/kg/injection, schedule: Q04DX003 (ip), vehicle: saline with Tween-80 106 % of control | dose: 8.0 mg/kg/injection, schedule: Q04DX003 (ip), vehicle: saline with Tween-80 109 % of control | dose: 13.0 mg/kg/injection, schedule: Q04DX003 (ip), vehicle: saline with Tween-80 112 % of control

Nc1nc(N)nc(N)n1
inactive: dose: 100.0 mg/kg/injection, schedule: Q04DX003 (ip), vehicle: Klucel (hydroxypropylcellulose) (HPC) 97 % of control | dose: 200.0 mg/kg/injection, schedule: Q04DX003 (ip), vehicle: Klucel (hydroxypropylcellulose) (HPC) 108 % of control | dose: 400.0 mg/kg/injection, schedule: Q04DX003 (ip), vehicle: Klucel (hydroxypropylcellulose) (HPC) 86 % of control | dose: 800.0 mg/kg/injection, schedule: Q04DX003 (ip), vehicle: Klucel (hydroxypropylcellulose) (HPC) 105 % of control

CC(=O)CC(=O)c1ccccc1.CC(=O)CC(=O)c1ccccc1.CC(=O)CC(=O)c1ccccc1.[Co]
inactive: [1] 100 % of control | [2] 100 % of control

COc1cc2c(cc1OC)C13CCN4CC5=CCOC6CC(=O)N2C1C6C5CC43 (centres undefined) (tested in a mixture with another compound)
inactive: dose: 45.0 mg/kg/injection, schedule: Q01DX001 (ip), vehicle: Klucel (hydroxypropylcellulose) (HPC) 100 % of control | dose: 65.0 mg/kg/injection, schedule: Q01DX001 (ip), vehicle: Klucel (hydroxypropylcellulose) (HPC) 100 % of control | [3] 106 % of control and 108 % of control | dose: 150.0 mg/kg/injection, schedule: Q01DX001 (ip), vehicle: Klucel (hydroxypropylcellulose) (HPC) 100 % of control

O=C(NC(CSC(c1ccccc1)c1ccccc1)C(=O)O)OCc1ccccc1 (centres undefined)
inactive: [3] 95 % of control | [4] 93 % of control | [5] 95 % of control

COc1cc2ccc(C(C)N)cc2cc1OC (centres undefined)
inactive: dose: 50.0 mg/kg/injection, schedule: Q04DX003 (ip), vehicle: saline 105 % of control | [6] 98 % of control | dose: 100.0 mg/kg/injection, schedule: Q04DX003 (ip), vehicle: saline 102 % of control | [7] 100 % of control | dose: 200.0 mg/kg/injection, schedule: Q04DX003 (ip), vehicle: saline 95 % of control

Cc1c(C(=O)O)cc2n(c1=O)Cc1cc3ccccc3nc1-2
inactive: dose: 50.0 mg/kg/injection, schedule: Q01DX001 (ip), vehicle: saline 102 % of control | dose: 50.0 mg/kg/injection, schedule: Q04DX003 (ip), vehicle: saline with Tween-80 93 % of control | [6] 100 % of control | dose: 100.0 mg/kg/injection, schedule: Q04DX003 (ip), vehicle: saline with Tween-80 100 % of control | [7] 94 % of control

COc1ccc(/C=C2/CSC/C(=C/c3ccc(OC)c(OC)c3)C2=O)cc1OC
inactive: [6] 96 % of control | [7] 88 % of control | [8] 90 % of control

O=C(O)/C=C/C(=O)Nc1cccc(Oc2ccc([N+](=O)[O-])cc2[N+](=O)[O-])c1
inactive: [6] 91 % of control | [7] 103 % of control

CC(=O)c1ccc2ccccc2c1O
inactive: [1] 102 % of control | [2] 88 % of control | [4] 88 % of control | dose: 200.0 mg/kg/injection, schedule: Q01DX001 (ip), vehicle: other 104 % of control | dose: 400.0 mg/kg/injection, schedule: Q01DX001 (ip), vehicle: other 111 % of control

Brc1cc(Br)c(-c2c(Br)cc(Br)cc2Br)c(Br)c1
inactive: [3] 103 % of control | [4] 100 % of control | [5] 96 % of control

OC1(C#CC2(O)c3ccccc3-c3ccccc32)c2ccccc2-c2ccccc21
inactive: [3] 105 % of control | [4] 108 % of control | [5] 102 % of control

COC(=O)Cc1ccc([N+](=O)[O-])cc1[N+](=O)[O-]
inactive: [6] 94 % of control | [7] 94 % of control | [8] 97 % of control
